The values that follow come from patent US20250313635A1, “ANTI-INTEGRIN ANTIBODIES AND USES THEREOF” (Merck Sharp & Dohme LLC, priority 2022, published 2025).

Read-outs that look alike come from different tables or passages of the source.

Data set [1] concerns the target T1, mαvβ8 (Mus musculus, UniProt P43406+Q0VBD0).
T1 construct: The full extracellular domains for all α and β integrin subunits; (GGGS)3 linker (C); acidic coiled-coil with cysteine (C); GG-Avitag (C); hexa-histidine tag (C); basic coiled-coil with cysteine (C); made in house; host or cells: Expi293 cells
Briefly: Mouse AlphaLISA integrin-ligand blocking assay (LAP). It counts as biochemical. The conditions noted are these: Table 12; read-out: IC50 Mouse integrin AlphaLISA assays mαvβ8. How it is done:
(§1) Integrin AlphaLISA assay. In the AlphaLISA integrin assays, we used a HEPES based buffer (25 mM HEPES pH 7.4, 137 mM NaCl, 1 mM MgCl2, 1 mM MnCl2, 2 mM CaCl2, 2.7 mM KCl, and 0.05% Tween 20). Optimal assay conditions were determined with a titration of the reagents for signal noise ratio (S/N), linear range, etc. For the respective integrins, we used the final concentrations described in Table 9.
(§2) Briefly, the testing antibody (8 μL) was added as a 4×(of Final testing concentration) solution in the HEPES buffer described previously into a 384w AlphaPlate™ (Perkin Elmer #6005350). Then the integrin and ligand were added sequentially as 8×(4 μL each). Plates were sealed and incubated at room temperature for two hours. Then 4×acceptor bead solution ([…]) was added, and the plates were resealed and incubated at room temperature (RT) for one hour. Finally, 4×([…]) donor beads solution was added in a darkened room and incubated for 45 minutes at room temperature. Plates were read on the Envision (Perkin Elmer) in AlphaScreen™ mode within three hours of donor bead addition.

Data set [2] deals with T2, mαvβ6 (Mus musculus, UniProt P43406+Q9Z0T9).
T2 construct: The full extracellular domains for all α and β integrin subunits; (GGGS)3 linker (C); acidic coiled-coil with cysteine (C); GG-Avitag (C); hexa-histidine tag (C); basic coiled-coil with cysteine (C); made in house; host or cells: Expi293 cells
Described as above. To be noted: Table 12; read-out: IC50 Mouse integrin AlphaLISA assays mαvβ6. It counts as biochemical. How it is done: as §1, §2

Data set [3] addresses T3, mouse αvβ1 (Mus musculus, UniProt P09055+P43406).
T3 construct: expressed in transfected cells
Briefly: Cell adhesion assay, CHOK1-α5KO-mαvβ1 cells on fibronectin. The class given is cell-based. The conditions noted are these: FIG. 11. How it is done: (§3) Cell adhesion assay. For plate preparation, Epic 384-well assay plates (Corning #5040) were washed with OptiMEM™ (Gibco #31985-070) and coated with murine fibronectin (Abcam #ab92784) at a concentration of 0.1 μg/well for CHO-α5KO-mαvβ1 cells; murine vitronectin (Abcam #ab92727) at 0.075 μg/well for CHO-mαvβ3 cells; or murine vitronectin at 0.125 μg/well for CHO-mαvβ5 (all at a volume of 25 μL/well in OptiMEM™), for one hour. Coating solution was then removed by flicking and plates were washed with OptiMEM™ and blocked with 25 μL/well of assay buffer (1% Ovalbumin (Sigma #A5503-10G) in OptiMEM™ containing 1×Pen-Strep (Gibco #15140-148)). A 5-minute baseline reading was taken on a Corning Epica Plate Reader (Model: Epic BT-157900) before removing the assay buffer and adding cells pre-incubated with inhibitors. The Epic™ plate reader detects cellular mass redistribution (adhesion) on the plate surface as a picometer wavelength shift over time. For inhibitor titration preparation: fivefold serial dilutions of small molecule inhibitor MK-0429 or antibody inhibitor Ab-31 were prepared in assay buffer at 4× the final concentration in a 384-well polypropylene plate in a volume of 15 μL per well, starting at a concentration of 800 nM. […]

Data set [4] relates to CHOK1 parental cells. The data set can be described thus: Cell adhesion assay, CHOK1 parental cells on fibronectin. It counts as cell-based, hamster. The conditions noted are these: FIG. 11.
Data set [5] deals with T4, mα5β1 (Mus musculus, UniProt P09055+P11688).
T4 construct: The full extracellular domains for all α and β integrin subunits; (GGGS)3 linker (C); acidic coiled-coil with cysteine (C); GG-Avitag (C); hexa-histidine tag (C); basic coiled-coil with cysteine (C); made in house; host or cells: Expi293 cells
Briefly: Mouse AlphaLISA integrin-ligand blocking assay (fibronectin). It counts as biochemical. To be noted: Table 12; read-out: IC50 Mouse integrin AlphaLISA assays mα5β1. The protocol: as §1, §2
(In general: Bead proximity is the source of the signal in Alpha formats.)

In data set [6] the target is T5, mαvβ1 (Mus musculus, UniProt P09055+P43406).
T5 construct: The full extracellular domains for all α and β integrin subunits; (GGGS)3 linker (C); acidic coiled-coil with cysteine (C); GG-Avitag (C); hexa-histidine tag (C); basic coiled-coil with cysteine (C); made in house; host or cells: Expi293 cells
Described as above. It counts as biochemical. The conditions noted are these: Table 12; read-out: IC50 Mouse integrin AlphaLISA assays mαvβ1. The protocol:
as §1, §2

Data set [7] concerns the target T6, hαvβ8 (Homo sapiens, UniProt P06756+P26012).
T6 construct: The full extracellular domains for all α and β integrin subunits; (GGGS)3 linker (C); acidic coiled-coil with cysteine (C); GG-Avitag (C); hexa-histidine tag (C); basic coiled-coil with cysteine (C); made in house; host or cells: Expi293 cells
The data set can be described thus: Human AlphaLISA integrin-ligand blocking assay (LAP). It counts as biochemical. The protocol: as §1, §2

The target in data set [8] is T7, hαvβ6 (Homo sapiens, UniProt P06756+P18564).
T7 construct: The full extracellular domains for all α and β integrin subunits; (GGGS)3 linker (C); acidic coiled-coil with cysteine (C); GG-Avitag (C); hexa-histidine tag (C); basic coiled-coil with cysteine (C); made in house; host or cells: Expi293 cells
Described as above. It counts as biochemical. How it is done: as §1, §2

For data set [9] the following is noted: osteoporosis patients, 52 weeks; cited from earlier work.
Data set [10] addresses T8, mαvβ5 (Mus musculus, UniProt O70309+P43406).
T8 construct: The full extracellular domains for all α and β integrin subunits; (GGGS)3 linker (C); acidic coiled-coil with cysteine (C); GG-Avitag (C); hexa-histidine tag (C); basic coiled-coil with cysteine (C); made in house; host or cells: Expi293 cells
Briefly: Mouse AlphaLISA integrin-ligand blocking assay (vitronectin). It counts as biochemical. To be noted: Table 12; read-out: IC50 Mouse integrin AlphaLISA assays mαvβ5. The protocol:
as §1, §2

The target of data set [11] is T9, mαvβ3 (Mus musculus, UniProt O54890+P43406).
T9 construct: The full extracellular domains for all α and β integrin subunits; (GGGS)3 linker (C); acidic coiled-coil with cysteine (C); GG-Avitag (C); hexa-histidine tag (C); basic coiled-coil with cysteine (C); made in house; host or cells: Expi293 cells
The data set is described as above. It counts as biochemical. The conditions noted are these: Table 12; read-out: IC50 Mouse integrin AlphaLISA assays mαvβ3. How it is done: as §1, §2

In data set [12] the target is T10, mouse αvβ3 (Mus musculus, UniProt O54890+P43406).
T10 construct: expressed in transfected cells
The data set can be described thus: Cell adhesion assay, CHOK1-mαvβ3 cells on vitronectin. The class given is cell-based. To be noted: FIG. 11. The protocol: as §3

Data set [13] has as its target T11, mouse αvβ5 (Mus musculus, UniProt O70309+P43406).
T11 construct: expressed in transfected cells
The data set can be described thus: Cell adhesion assay, CHOK1-mαvβ5 cells on vitronectin. The class given is cell-based. To be noted: FIG. 11. How it is done: as §3

T7 sequence (P06756 31-992 limits assumed): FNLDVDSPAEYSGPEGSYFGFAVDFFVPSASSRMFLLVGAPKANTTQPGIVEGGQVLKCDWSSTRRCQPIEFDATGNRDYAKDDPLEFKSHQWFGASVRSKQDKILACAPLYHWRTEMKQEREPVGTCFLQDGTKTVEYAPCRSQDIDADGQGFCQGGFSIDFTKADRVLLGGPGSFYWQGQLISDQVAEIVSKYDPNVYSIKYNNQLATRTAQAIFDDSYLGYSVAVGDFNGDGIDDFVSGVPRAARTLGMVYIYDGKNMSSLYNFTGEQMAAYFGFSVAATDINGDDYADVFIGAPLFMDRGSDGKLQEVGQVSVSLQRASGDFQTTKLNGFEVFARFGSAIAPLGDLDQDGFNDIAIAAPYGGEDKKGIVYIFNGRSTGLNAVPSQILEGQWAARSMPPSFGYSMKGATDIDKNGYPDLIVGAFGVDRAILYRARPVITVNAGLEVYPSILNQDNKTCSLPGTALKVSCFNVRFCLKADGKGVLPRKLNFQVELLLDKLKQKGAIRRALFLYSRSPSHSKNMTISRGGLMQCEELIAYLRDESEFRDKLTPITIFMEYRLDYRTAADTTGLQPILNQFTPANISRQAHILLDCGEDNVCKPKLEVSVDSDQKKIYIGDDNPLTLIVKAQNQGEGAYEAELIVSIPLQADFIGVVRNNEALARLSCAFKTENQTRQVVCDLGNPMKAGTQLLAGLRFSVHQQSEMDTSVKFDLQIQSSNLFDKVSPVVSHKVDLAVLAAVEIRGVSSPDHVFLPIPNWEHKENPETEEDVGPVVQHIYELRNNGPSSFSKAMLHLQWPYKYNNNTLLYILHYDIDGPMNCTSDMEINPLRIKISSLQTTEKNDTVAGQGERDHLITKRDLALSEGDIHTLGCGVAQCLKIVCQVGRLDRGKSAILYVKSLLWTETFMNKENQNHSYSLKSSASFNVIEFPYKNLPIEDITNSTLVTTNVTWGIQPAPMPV
T7 sequence (P18564 22-709 limits assumed): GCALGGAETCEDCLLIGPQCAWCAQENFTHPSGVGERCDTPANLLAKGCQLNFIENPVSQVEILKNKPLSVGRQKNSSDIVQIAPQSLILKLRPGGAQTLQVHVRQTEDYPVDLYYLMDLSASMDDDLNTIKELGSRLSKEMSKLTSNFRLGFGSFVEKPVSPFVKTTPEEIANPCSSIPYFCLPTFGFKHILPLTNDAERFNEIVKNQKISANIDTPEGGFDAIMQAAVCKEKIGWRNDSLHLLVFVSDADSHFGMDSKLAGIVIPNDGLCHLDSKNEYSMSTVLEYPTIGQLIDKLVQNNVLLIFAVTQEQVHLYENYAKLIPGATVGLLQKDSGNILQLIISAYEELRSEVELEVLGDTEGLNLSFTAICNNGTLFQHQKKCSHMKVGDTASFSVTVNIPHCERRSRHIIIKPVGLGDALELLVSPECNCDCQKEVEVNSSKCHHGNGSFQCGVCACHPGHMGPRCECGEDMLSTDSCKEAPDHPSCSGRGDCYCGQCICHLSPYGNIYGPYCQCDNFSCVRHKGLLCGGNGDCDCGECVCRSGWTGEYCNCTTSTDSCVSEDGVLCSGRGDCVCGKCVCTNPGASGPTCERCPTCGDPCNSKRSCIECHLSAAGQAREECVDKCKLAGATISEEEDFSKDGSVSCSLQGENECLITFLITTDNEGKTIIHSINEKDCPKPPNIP
T6 sequence (P06756 31-992 limits assumed): as the sequence (P06756 31-992 limits assumed) above
T6 sequence (P26012 43-684 limits assumed): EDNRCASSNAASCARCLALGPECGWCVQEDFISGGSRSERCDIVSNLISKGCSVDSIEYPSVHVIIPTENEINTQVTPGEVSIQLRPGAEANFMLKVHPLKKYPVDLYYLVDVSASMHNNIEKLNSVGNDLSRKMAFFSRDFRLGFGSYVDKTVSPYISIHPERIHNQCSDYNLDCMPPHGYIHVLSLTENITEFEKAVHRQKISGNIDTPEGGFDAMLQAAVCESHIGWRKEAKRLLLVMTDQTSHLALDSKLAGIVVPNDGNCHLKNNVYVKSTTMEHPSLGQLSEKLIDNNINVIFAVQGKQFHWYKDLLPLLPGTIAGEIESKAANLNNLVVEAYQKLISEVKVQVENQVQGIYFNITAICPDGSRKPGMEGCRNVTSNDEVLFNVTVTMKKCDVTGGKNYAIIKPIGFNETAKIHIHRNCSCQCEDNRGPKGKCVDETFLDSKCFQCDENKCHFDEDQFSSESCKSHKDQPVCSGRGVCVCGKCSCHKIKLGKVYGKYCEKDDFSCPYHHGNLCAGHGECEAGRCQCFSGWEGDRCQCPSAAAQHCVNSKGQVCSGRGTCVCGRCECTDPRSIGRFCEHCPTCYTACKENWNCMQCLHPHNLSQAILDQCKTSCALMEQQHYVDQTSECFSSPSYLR
T4 sequence (P11688 45-999 limits assumed): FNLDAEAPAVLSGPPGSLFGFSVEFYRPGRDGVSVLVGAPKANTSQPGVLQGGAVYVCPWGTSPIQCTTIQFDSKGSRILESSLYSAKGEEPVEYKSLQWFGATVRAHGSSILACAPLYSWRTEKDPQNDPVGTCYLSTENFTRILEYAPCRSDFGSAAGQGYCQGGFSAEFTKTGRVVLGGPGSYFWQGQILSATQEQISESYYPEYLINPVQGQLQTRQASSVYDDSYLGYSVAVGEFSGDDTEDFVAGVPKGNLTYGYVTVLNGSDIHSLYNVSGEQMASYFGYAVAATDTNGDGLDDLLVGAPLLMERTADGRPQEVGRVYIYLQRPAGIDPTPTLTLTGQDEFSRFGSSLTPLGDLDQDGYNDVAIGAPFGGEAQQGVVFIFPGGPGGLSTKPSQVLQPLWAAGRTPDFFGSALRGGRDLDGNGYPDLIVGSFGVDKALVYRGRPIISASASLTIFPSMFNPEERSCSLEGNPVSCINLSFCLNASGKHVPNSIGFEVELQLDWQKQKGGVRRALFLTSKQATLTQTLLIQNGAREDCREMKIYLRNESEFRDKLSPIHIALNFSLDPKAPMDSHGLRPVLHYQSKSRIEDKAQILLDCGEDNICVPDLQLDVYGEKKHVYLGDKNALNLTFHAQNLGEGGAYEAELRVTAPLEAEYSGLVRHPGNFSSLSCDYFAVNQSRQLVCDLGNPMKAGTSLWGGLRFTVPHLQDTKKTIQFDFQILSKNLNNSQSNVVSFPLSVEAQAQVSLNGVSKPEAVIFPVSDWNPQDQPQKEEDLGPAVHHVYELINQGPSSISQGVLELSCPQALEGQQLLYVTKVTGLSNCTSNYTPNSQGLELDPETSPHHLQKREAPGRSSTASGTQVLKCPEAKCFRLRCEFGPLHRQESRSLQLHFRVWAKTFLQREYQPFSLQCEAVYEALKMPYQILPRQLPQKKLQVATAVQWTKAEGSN
T4 sequence (P09055 21-728 limits assumed): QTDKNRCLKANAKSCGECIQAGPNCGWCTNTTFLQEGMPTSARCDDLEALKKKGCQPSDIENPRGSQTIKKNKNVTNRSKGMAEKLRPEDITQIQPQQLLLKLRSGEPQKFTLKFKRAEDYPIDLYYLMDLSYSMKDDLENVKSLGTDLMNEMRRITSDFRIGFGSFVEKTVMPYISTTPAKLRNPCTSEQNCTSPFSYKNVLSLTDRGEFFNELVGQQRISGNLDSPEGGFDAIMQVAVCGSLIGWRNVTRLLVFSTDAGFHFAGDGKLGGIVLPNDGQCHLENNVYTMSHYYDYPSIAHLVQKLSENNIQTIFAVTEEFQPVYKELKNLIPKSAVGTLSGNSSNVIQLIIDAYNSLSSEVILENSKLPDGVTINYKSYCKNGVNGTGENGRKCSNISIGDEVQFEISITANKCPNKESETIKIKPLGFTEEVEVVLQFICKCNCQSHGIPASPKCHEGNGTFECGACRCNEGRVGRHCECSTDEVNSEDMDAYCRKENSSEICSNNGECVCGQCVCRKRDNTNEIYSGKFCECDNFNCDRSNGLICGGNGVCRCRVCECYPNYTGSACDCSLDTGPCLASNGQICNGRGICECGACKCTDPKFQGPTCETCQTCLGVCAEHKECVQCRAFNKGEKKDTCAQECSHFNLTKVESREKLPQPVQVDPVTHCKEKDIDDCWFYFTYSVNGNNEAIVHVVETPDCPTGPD
T5 sequence (P43406 31-988 limits assumed): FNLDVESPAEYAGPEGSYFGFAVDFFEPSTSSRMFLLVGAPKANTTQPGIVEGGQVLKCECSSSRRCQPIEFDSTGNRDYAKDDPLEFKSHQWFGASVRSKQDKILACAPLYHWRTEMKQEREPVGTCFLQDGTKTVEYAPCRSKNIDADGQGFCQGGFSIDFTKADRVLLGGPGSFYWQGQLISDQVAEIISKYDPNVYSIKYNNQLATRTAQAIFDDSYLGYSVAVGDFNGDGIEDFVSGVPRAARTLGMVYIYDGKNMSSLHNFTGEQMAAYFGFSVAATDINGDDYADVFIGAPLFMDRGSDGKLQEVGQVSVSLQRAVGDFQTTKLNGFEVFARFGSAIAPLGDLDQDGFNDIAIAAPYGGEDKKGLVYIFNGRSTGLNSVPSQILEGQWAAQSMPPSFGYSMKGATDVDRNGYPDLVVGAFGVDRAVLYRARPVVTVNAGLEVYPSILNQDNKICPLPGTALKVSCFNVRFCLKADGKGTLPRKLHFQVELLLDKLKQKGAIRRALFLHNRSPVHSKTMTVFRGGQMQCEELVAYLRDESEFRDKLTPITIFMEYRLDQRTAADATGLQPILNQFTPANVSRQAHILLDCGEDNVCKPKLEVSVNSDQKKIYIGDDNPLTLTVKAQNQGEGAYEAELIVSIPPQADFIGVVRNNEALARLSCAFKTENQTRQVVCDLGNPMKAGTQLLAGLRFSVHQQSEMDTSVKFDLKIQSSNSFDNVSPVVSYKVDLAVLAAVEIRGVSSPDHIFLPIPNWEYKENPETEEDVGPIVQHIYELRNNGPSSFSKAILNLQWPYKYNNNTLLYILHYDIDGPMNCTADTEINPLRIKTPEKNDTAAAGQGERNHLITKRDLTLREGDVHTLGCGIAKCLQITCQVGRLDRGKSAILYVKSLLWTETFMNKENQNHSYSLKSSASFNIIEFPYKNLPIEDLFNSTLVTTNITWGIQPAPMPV
T5 sequence (P09055 21-728 limits assumed): as the sequence (P09055 21-728 limits assumed) above

As a reminder, the IC50 is the midpoint of a concentration-inhibition curve. Turning to `COc1ccc([C@H](CC(=O)O)N2CCN(CCCc3ccc4c(n3)NCCC4)C2=O)cn1` [MK-0429, (3S)-3-(6-methoxypyridin-3-yl)-3-[2-oxo-3-[3-(5,6,7,8-tetrahydro-1,8-naphthyridin-2-yl)propyl]imidazolidin-1-yl]propanoic acid], the IC50 worked out at 5.3 nM in data set [1]; 0.4 nM in data set [2]; 50.3 nM in data set [5]; 1.3 nM in data set [6]; 58.3 nM in [7] (FIG. 3D, curve-fitted, read-out: IC50 against human αvβ1 (as printed, fifth integrin listed), AlphaLISA); 3.1 nM in data set [7] (Table 11, read-out: IC50 Human integrin AlphaLISA assays hαvβ8). Further, the IC50 in [8] (FIG. 3D, curve-fitted, read-out: IC50 against human αvβ6, AlphaLISA) was found to be 3.8 nM; in data set [8] (Table 11, read-out: IC50 Human integrin AlphaLISA assays hαvβ6), 0.5 nM; in [10], 48.3 nM; in data set [11] it was 0.9 nM. For the same compound, in data set [3], the “adhesion of mouse αvβ1-expressing CHOK1-α5KO cells” value is given as “potently reduced”. Further, the “inhibition of adhesion of CHOK1 parental cells on fibronectin” value in data set [4] is “little inhibitory activity”. For the same compound, in [9], the safety profile result is reported as “relatively well-tolerated safety profile”. Further, the “cell adhesion of mouse αvβ3 on a vitronectin matrix” value in [12] is recorded as “decreased”. The “cell adhesion of mouse αvβ5 on a vitronectin matrix” value in data set [13] is reported as “decreased”.
